What was measured:
Type in all cases: in vivo
[1] = tested on: Italian ryegrass (Lolium multiflorum); assay: Test A preemergence, visual injury rating
Summary of the method: (§1)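 Injury scores run from 0, no effect, to 100, complete control, judged by eye against untreated plants roughly 10 days after treatment. Chemicals carried a surfactant in a non-phytotoxic solvent and went onto loam–sand soil preemergence or onto one- to two-leaf seedlings postemergence.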

[2] = tested on: barnyardgrass (Echinochloa crus-galli); assay: Test A preemergence, visual injury rating
Summary of the method: as §1

[3] = tested on: giant foxtail (Setaria faberii); assay: Test A preemergence, visual injury rating
Summary of the method: as §1

[4] = tested on: ragweed (common ragweed, Ambrosia elatior); assay: Test A preemergence, visual injury rating
Summary of the method: as §1

[5] = tested on: blackgrass (Alopecurus myosuroides); assay: Test C preemergence, plant response rating; settings: Preemergence
Summary of the method: (§2)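 Visual injury score, 0 = no effect, 100 = complete control, assigned against untreated controls after 13 to 15 d in the greenhouse. Compounds were applied in a surfactant-containing non-phytotoxic solvent mix, preemergence to seeded loam/sand or silt loam soil, or postemergence to 1- to 4-leaf plants (2 to 18 cm).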

corn (Zea mays) = assay: Test C preemergence, plant response rating; settings: Preemergence
Summary of the method: as §2

[6] = tested on: crabgrass, large (large crabgrass, Digitaria sanguinalis); assay: Test C preemergence, plant response rating; settings: Preemergence
Summary of the method: as §2

[7] = tested on: foxtail, giant (giant foxtail, Setaria faberii); assay: Test C preemergence, plant response rating; settings: Preemergence
Summary of the method: as §2

[8] = tested on: lambsquarters (Chenopodium album); assay: Test C preemergence, plant response rating; settings: Preemergence
Summary of the method: as §2

[9] = tested on: morningglory (Ipomoea coccinea); assay: Test C preemergence, plant response rating; settings: Preemergence
Summary of the method: as §2

[10] = tested on: nutsedge, yellow (yellow nutsedge, Cyperus esculentus); assay: Test C preemergence, plant response rating; settings: Preemergence
Summary of the method: as §2

[11] = tested on: oilseed rape (Brassica napus); assay: Test C preemergence, plant response rating; settings: Preemergence
Summary of the method: as §2

[12] = tested on: ragweed (common ragweed, Ambrosia elatior); assay: Test C preemergence, plant response rating; settings: Preemergence
Summary of the method: as §2

[13] = tested on: ryegrass, Italian (Italian ryegrass, Lolium multiflorum); assay: Test C preemergence, plant response rating; settings: Preemergence
Summary of the method: as §2

soybean (Glycine max) = assay: Test C preemergence, plant response rating; settings: Preemergence
Summary of the method: as §2

[14] = tested on: velvetleaf (Abutilon theophrasti); assay: Test C preemergence, plant response rating; settings: Preemergence
Summary of the method: as §2

[15] = tested on: waterhemp (common waterhemp, Amaranthus rudis); assay: Test C preemergence, plant response rating; settings: Preemergence
Summary of the method: as §2

[16] = tested on: wheat (winter wheat, Triticum aestivum); assay: Test C preemergence, plant response rating; settings: Preemergence
Summary of the method: as §2

[17] = 125 g ai/ha, 0 to 100 scale (0 no effect, 100 complete control)
[18] = 500 g ai/ha, 0 to 100 scale (0 no effect, 100 complete control)
[19] = 31 g ai/ha, 0 to 100 scale, 0 no effect, 100 complete control

## CCCC(=O)c1c(Oc2ncc(Cl)cn2)cccc1C(F)(F)F [Compound 136]
[1]; [17]
  Plant response rating, Ryegrass, Italian: 20
[1]; [18]
  Ryegrass, Italian plant response rating: 100
[2]; [17]
  Plant response rating, Barnyardgrass: 100
[2]; [18]
  Barnyardgrass plant response rating: 100
[3]; [17]
  Plant response rating, Foxtail, Giant: 100
[3]; [18]
  Foxtail, Giant plant response rating: 100
[4]; [17]
  Plant response rating, Ragweed: 80
[4]; [18]
  Ragweed plant response rating: 80
[5]; 125 g ai/ha, scale of 0 to 100
  Plant response rating, Blackgrass: 95
[5]; 16 g ai/ha, scale 0 to 100
  Plant response rating, Blackgrass: 0
[5]; 31 g ai/ha, scale 0 to 100
  Plant response rating, Blackgrass: 35
[5]; 62 g ai/ha, scale 0 to 100
  Plant response rating, Blackgrass: 60
Corn (Zea mays); 125 g ai/ha, scale of 0 to 100
  Plant response rating, Corn: 5
Corn (Zea mays); 16 g ai/ha, scale 0 to 100
  Plant response rating, Corn: 0
Corn (Zea mays); 31 g ai/ha, scale 0 to 100
  Plant response rating, Corn: 0
Corn (Zea mays); 62 g ai/ha, scale 0 to 100
  Plant response rating, Corn: 5
[6]; 125 g ai/ha, scale of 0 to 100
  Plant response rating, Crabgrass, Large: 100
[6]; 16 g ai/ha, scale 0 to 100
  Plant response rating, Crabgrass, Large: 50
[6]; 31 g ai/ha, scale 0 to 100
  Plant response rating, Crabgrass, Large: 85
[6]; 62 g ai/ha, scale 0 to 100
  Plant response rating, Crabgrass, Large: 100
[7]; 125 g ai/ha, scale of 0 to 100
  Plant response rating, Foxtail, Giant: 100
[7]; 31 g ai/ha, scale 0 to 100
  Plant response rating, Foxtail, Giant: 65
[7]; 62 g ai/ha, scale 0 to 100
  Plant response rating, Foxtail, Giant: 70
[8]; 125 g ai/ha, scale of 0 to 100
  Plant response rating, Lambsquarters: 80
[8]; 31 g ai/ha, scale 0 to 100
  Plant response rating, Lambsquarters: 30
[8]; 62 g ai/ha, scale 0 to 100
  Plant response rating, Lambsquarters: 25
[9]; 125 g ai/ha, scale of 0 to 100
  Plant response rating, Morningglory: 30
[9]; 31 g ai/ha, scale 0 to 100
  Plant response rating, Morningglory: 0
[9]; 62 g ai/ha, scale 0 to 100
  Plant response rating, Morningglory: 5
[10]; 125 g ai/ha, scale of 0 to 100
  Plant response rating, Nutsedge, Yellow: 5
[10]; 31 g ai/ha, scale 0 to 100
  Plant response rating, Nutsedge, Yellow: 0
[10]; 62 g ai/ha, scale 0 to 100
  Plant response rating, Nutsedge, Yellow: 0
[11]; 125 g ai/ha, scale of 0 to 100
  Plant response rating, Oilseed Rape: 98
[11]; 31 g ai/ha, scale 0 to 100
  Plant response rating, Oilseed Rape: 5
[11]; 62 g ai/ha, scale 0 to 100
  Plant response rating, Oilseed Rape: 70
[12]; 125 g ai/ha, scale of 0 to 100
  Plant response rating, Ragweed: 40
[12]; 31 g ai/ha, scale 0 to 100
  Plant response rating, Ragweed: 20
[12]; 62 g ai/ha, scale 0 to 100
  Plant response rating, Ragweed: 0
[13]; 125 g ai/ha, scale of 0 to 100
  Plant response rating, Ryegrass, Italian: 65
[13]; 31 g ai/ha, scale 0 to 100
  Plant response rating, Ryegrass, Italian: 30
[13]; 62 g ai/ha, scale 0 to 100
  Plant response rating, Ryegrass, Italian: 35
Soybean (Glycine max); 125 g ai/ha, scale of 0 to 100
  Plant response rating, Soybean: 40
Soybean (Glycine max); 31 g ai/ha, scale 0 to 100
  Plant response rating, Soybean: 0
Soybean (Glycine max); 62 g ai/ha, scale 0 to 100
  Plant response rating, Soybean: 15
[14]; 125 g ai/ha, scale of 0 to 100
  Plant response rating, Velvetleaf: 65
[14]; 31 g ai/ha, scale 0 to 100
  Plant response rating, Velvetleaf: 5
[14]; 62 g ai/ha, scale 0 to 100
  Plant response rating, Velvetleaf: 15
[15]; 125 g ai/ha, scale of 0 to 100
  Plant response rating, Waterhemp: 100
[15]; 31 g ai/ha, scale 0 to 100
  Plant response rating, Waterhemp: 100
[15]; 62 g ai/ha, scale 0 to 100
  Plant response rating, Waterhemp: 100
[16]; 125 g ai/ha, scale of 0 to 100
  Plant response rating, Wheat: 10
[16]; 31 g ai/ha, scale 0 to 100
  Plant response rating, Wheat: 0
[16]; 62 g ai/ha, scale 0 to 100
  Plant response rating, Wheat: 0

## FC(F)(F)CCCCc1c(Br)cccc1Oc1ncc(Cl)cn1 [Compound 138]
[1]; [19]
  Plant response rating, Ryegrass, Italian: 10
[1]; [17]
  Plant response rating, Ryegrass, Italian: 100
[2]; [19]
  Plant response rating, Barnyardgrass: 70
[2]; [17]
  Plant response rating, Barnyardgrass: 100
[3]; [19]
  Plant response rating, Foxtail, Giant: 90
[3]; [17]
  Plant response rating, Foxtail, Giant: 100
[4]; [19]
  Plant response rating, Ragweed: 0
[4]; [17]
  Plant response rating, Ragweed: 0
[5]; 125 g ai/ha, scale of 0 to 100
  Plant response rating, Blackgrass: 90
[5]; 16 g ai/ha, scale 0 to 100
  Plant response rating, Blackgrass: 10
[5]; 31 g ai/ha, scale 0 to 100
  Plant response rating, Blackgrass: 50
[5]; 62 g ai/ha, scale 0 to 100
  Plant response rating, Blackgrass: 80
Corn (Zea mays); 125 g ai/ha, scale of 0 to 100
  Plant response rating, Corn: 5
Corn (Zea mays); 16 g ai/ha, scale 0 to 100
  Plant response rating, Corn: 0
Corn (Zea mays); 31 g ai/ha, scale 0 to 100
  Plant response rating, Corn: 0
Corn (Zea mays); 62 g ai/ha, scale 0 to 100
  Plant response rating, Corn: 5
[6]; 125 g ai/ha, scale of 0 to 100
  Plant response rating, Crabgrass, Large: 98
[6]; 16 g ai/ha, scale 0 to 100
  Plant response rating, Crabgrass, Large: 75
[6]; 31 g ai/ha, scale 0 to 100
  Plant response rating, Crabgrass, Large: 95
[6]; 62 g ai/ha, scale 0 to 100
  Plant response rating, Crabgrass, Large: 98
[7]; 125 g ai/ha, scale of 0 to 100
  Plant response rating, Foxtail, Giant: 100
[7]; 31 g ai/ha, scale 0 to 100
  Plant response rating, Foxtail, Giant: 80
[7]; 62 g ai/ha, scale 0 to 100
  Plant response rating, Foxtail, Giant: 85
[8]; 125 g ai/ha, scale of 0 to 100
  Plant response rating, Lambsquarters: 70
[8]; 31 g ai/ha, scale 0 to 100
  Plant response rating, Lambsquarters: 35
[8]; 62 g ai/ha, scale 0 to 100
  Plant response rating, Lambsquarters: 25
[9]; 125 g ai/ha, scale of 0 to 100
  Plant response rating, Morningglory: 10
[9]; 31 g ai/ha, scale 0 to 100
  Plant response rating, Morningglory: 0
[9]; 62 g ai/ha, scale 0 to 100
  Plant response rating, Morningglory: 0
[10]; 125 g ai/ha, scale of 0 to 100
  Plant response rating, Nutsedge, Yellow: 0
[10]; 31 g ai/ha, scale 0 to 100
  Plant response rating, Nutsedge, Yellow: 0
[10]; 62 g ai/ha, scale 0 to 100
  Plant response rating, Nutsedge, Yellow: 0
[11]; 125 g ai/ha, scale of 0 to 100
  Plant response rating, Oilseed Rape: 20
[11]; 31 g ai/ha, scale 0 to 100
  Plant response rating, Oilseed Rape: 0
[11]; 62 g ai/ha, scale 0 to 100
  Plant response rating, Oilseed Rape: 5
[12]; 125 g ai/ha, scale of 0 to 100
  Plant response rating, Ragweed: 10
[12]; 31 g ai/ha, scale 0 to 100
  Plant response rating, Ragweed: 0
[12]; 62 g ai/ha, scale 0 to 100
  Plant response rating, Ragweed: 0
[13]; 125 g ai/ha, scale of 0 to 100
  Plant response rating, Ryegrass, Italian: 80
[13]; 31 g ai/ha, scale 0 to 100
  Plant response rating, Ryegrass, Italian: 10
[13]; 62 g ai/ha, scale 0 to 100
  Plant response rating, Ryegrass, Italian: 20
Soybean (Glycine max); 125 g ai/ha, scale of 0 to 100
  Plant response rating, Soybean: 5
Soybean (Glycine max); 31 g ai/ha, scale 0 to 100
  Plant response rating, Soybean: 0
Soybean (Glycine max); 62 g ai/ha, scale 0 to 100
  Plant response rating, Soybean: 0
[14]; 125 g ai/ha, scale of 0 to 100
  Plant response rating, Velvetleaf: 50
[14]; 31 g ai/ha, scale 0 to 100
  Plant response rating, Velvetleaf: 25
[14]; 62 g ai/ha, scale 0 to 100
  Plant response rating, Velvetleaf: 20
[15]; 125 g ai/ha, scale of 0 to 100
  Plant response rating, Waterhemp: 98
[15]; 31 g ai/ha, scale 0 to 100
  Plant response rating, Waterhemp: 85
[15]; 62 g ai/ha, scale 0 to 100
  Plant response rating, Waterhemp: 100
[16]; 125 g ai/ha, scale of 0 to 100
  Plant response rating, Wheat: 10
[16]; 31 g ai/ha, scale 0 to 100
  Plant response rating, Wheat: 5
[16]; 62 g ai/ha, scale 0 to 100
  Plant response rating, Wheat: 5
